Patent US10844044B2 (Vanderbilt University, priority 2018, dated 2020)

biological target: WDR5 (Homo sapiens (Human), UniProt P61964); assay: TR-FRET binding assay (displacement of 10mer-Thr-FAM probe from WDR5); details: read-out: Ki for Inhibition of WDR5 by TR-FRET assay

Row | Structure (SMILES) | Ki [nM]
1 | C[C@H](NC(=O)c1cc(Cn2ccoc2=N)cc(-c2cccnc2C(F)(F)F)c1)c1ccc(F)c(Cl)c1 [Example 257, (S)—N-(1-(3-Chloro-4-fluorophenyl)ethyl)-3-((2-iminooxazol-3(2H)-yl)methyl)-5-(2-(trifluoromethyl)pyridin-3-yl)benzamide] | 2
2 | N=C1SCCN1Cc1cc(C(=O)N[C@H](c2ccc(Cl)c(Cl)c2)C2CC2)cc(-c2ncc(F)cc2C(F)(F)F)c1 [Example 317, (S)—N-(Cyclopropyl(3,4-dichlorophenyl)methyl)-3-(5-fluoro-3-(trifluoromethyl)pyridin-2-yl)-5-((2-iminothiazolidin-3-yl)methyl)benzamide] | 0.28
3 | CCn1cc(-c2cc(CN3CCSC3=N)cc(C(=O)NCc3ccc(=O)n(C)c3)c2)c(C(F)(F)F)n1 [Example 323, 3-(1-Ethyl-3-(trifluoromethyl)-1H-pyrazol-4-yl)-5-((2-iminothiazolidin-3-yl)methyl)-N-((1-methyl-6-oxo-1,6-dihydropyridin-3-yl)methyl)benzamide] | 1.8

same assay, conditions: read-out: Ki for Inhibition of WDR5 by TR-FRET assay; TR-FRET, 10mer-Thr-FAM probe, WDR5-His tag 2 nM, pH 7.0

Row | Structure (SMILES) | Ki [nM]
4 | Cc1cc([C@@H](NC(=O)c2cc(Cn3cc(F)ccc3=N)cc(-c3cccnc3C(F)(F)F)c2)C2CC2)ccc1F [Example 354, (S)—N-(cyclopropyl(4-fluoro-3-methylphenyl)methyl)-3-((5-fluoro-2-iminopyridin-1(2H)-yl)methyl)-5-(2-(trifluoromethyl)pyridin-3-yl)benzamide] | < 0.1
5 | Cc1ccnc(C(NC(=O)c2cc(Cn3ccn(C)c3=N)cc(-c3ccnc(C)c3)c2)C2CC2)c1 (centres unmarked) [Example 7] | 0.8
6 | Cc1cc([C@@H](NC(=O)c2cc(CN3C[C@@H](C)OC3=N)cc(-c3cccnc3C(F)(F)F)c2)C2CC2)ccc1F [Example 297, N—((S)-cyclopropyl(4-fluoro-3-methylphenyl)methyl)-3-(((R)-2-imino-5-methyloxazolidin-3-yl)methyl)-5-(2-(trifluoromethyl)pyridin-3-yl)benzamide] | 2.3
7 | Cc1cc([C@@H](NC(=O)c2cc(Cn3ccn(C)c3=N)cc(N3CCC[C@H]3C)c2)C2CC2)ccc1F [Example 226, N—((S)-Cyclopropyl(4-fluoro-3-methylphenyl)methyl)-3-((2-imino-3-methyl-2,3-dihydro-1H-imidazol-1-yl)methyl)-5-((R)-2-methylpyrrolidin-1-yl)benzamide] | 7.1
8 | COc1ncc(C)cc1-c1cc(Cn2ccn(C)c2=N)cc(C(=O)NC(c2cc(C)ccn2)C2CC2)c1 (centres unmarked) [Example 2, N-(Cyclopropyl(4-methylpyridin-2-yl)methyl)-3-((2-imino-3-methyl-2,3-dihydro-1-imidazol-1-yl)methyl)-5-(2-methoxy-5-methylpyridin-3-yl)benzamide] | < 0.1
9 | Cc1ccnc(C(NC(=O)c2cc(Cn3ccn(C)c3=N)cc(-c3cnccc3C)c2)C2CC2)c1 (centres unmarked) [Example 15, N-(Cyclopropyl(4-methylpyridin-2-yl)methyl)-3-((2-imino-3-methyl-2,3-dihydro-1H-imidazol-1-yl)methyl)-5-(4-methylpyridin-3-yl)benzamide] | 2.7
10 | COc1cc(CNC(=O)c2cc(Cn3ccn(CC4CC4)c3=N)cc(-c3ccc(F)cc3C)c2)cc(OC)c1 [Example 134, 5-((3-(Cyclopropylmethyl)-2-imino-2,3-dihydro-1H-imidazol-1-yl)methyl)-N-(3,5-dimethoxybenzyl)-4′-fluoro-2′-methyl-[1,1′-biphenyl]-3-carboxamide] | 38
11 | Cc1ccnc([C@@H](NC(=O)c2cc(Cn3ccn(C)c3=N)cc(OCC3CC3)c2)C2CC2)c1 [Example 182, (S)—N-(Cyclopropyl(4-methylpyridin-2-yl)methyl)-3-(cyclopropylmethoxy)-5-((2-imino-3-methyl-2,3-dihydro-1H-imidazol-1-yl)methyl)benzamide] | 1
12 | Cc1cc([C@@H](NC(=O)c2cc(CN3CCCOC3=N)cc(-c3cccnc3C(F)(F)F)c2)C2CC2)ccc1F [Example 266, (S)—N-(Cyclopropyl(4-fluoro-3-methylphenyl)methyl)-3-((2-imino-1,3-oxazinan-3-yl)methyl)-5-(2-(trifluoromethyl)pyridin-3-yl)benzamide] | 16
13 | Cc1cc([C@@H](NC(=O)c2cc(Cn3ccoc3=N)cc(-c3cncnc3C(F)(F)F)c2)C2CC2)ccc1F [Example 255, (S)—N-(Cyclopropyl(4-fluoro-3-methylphenyl)methyl)-3-((2-iminooxazol-3(2H)-yl)methyl)-5-(4-(trifluoromethyl)pyrimidin-5-yl)benzamide] | 0.62
14 | Cc1cc(CNC(=O)c2cc(Cn3ccn(C)c3=N)cc(-c3ccncc3C)c2)ccc1Cl [Example 16, N-(4-Chloro-3-methylbenzyl)-3-((2-imino-3-methyl-2,3-dihydro-1H-imidazol-1-yl)methyl)-5-(3-methylpyridin-4-yl)benzamide] | 0.49
15 | Cc1cc(F)ccc1-c1cc(Cn2ccoc2=N)cc(C(=O)NCc2ccc(Cl)c(Cl)c2)n1 [Example 277, N-(3,4-Dichlorobenzyl)-6-(4-fluoro-2-methylphenyl)-4-((2-iminooxazol-3(2H)-yl)methyl)picolinamide] | > 33
16 | COc1cc(CNC(=O)c2cc(Cn3ccn(C)c3=N)cc(-c3cnc(F)cc3C)c2)cc(OC)c1 [Example 78, N-(3,5-Dimethoxybenzyl)-3-(6-fluoro-4-methylpyridin-3-yl)-5-((2-imino-3-methyl-2,3-dihydro-1H-imidazol-1-yl)methyl)benzamide] | 5.9
17 | COc1ccnc(CNC(=O)c2cc(Cn3ccn(C)c3=N)cc(-c3ccc(F)cc3C)n2)c1 [Example 357, 6-(4-Fluoro-2-methylphenyl)-4-((2-imino-3-methyl-2,3-dihydro-1H-imidazol-1-yl)methyl)-N-((4-methoxypyridin-2-yl)methyl)picolinamide] | 1.3
18 | Cc1ccnc(C(NC(=O)c2cc(Cn3ccn(C)c3=N)cc(OC(F)(F)F)c2)C2CC2)c1 (centres unmarked) [Example 145, N-(Cyclopropyl(4-methylpyridin-2-yl)methyl)-3-((2-imino-3-methyl-2,3-dihydro-1H-imidazol-1-yl)methyl)-5-(trifluoromethoxy)benzamide] | 0.95
19 | Cc1cc(=O)[nH]cc1-c1cc(Cn2ccn(C)c2=N)cc(C(=O)NCc2ccc(Cl)c(Cl)c2)c1 [Example 82, N-(3,4-dichlorobenzyl)-3-((2-imino-3-methyl-2,3-dihydro-1H-imidazol-1-yl)methyl)-5-(4-methyl-6-oxo-1,6-dihydropyridin-3-yl)benzamide] | 20
20 | Cc1cc(F)ccc1-c1cc(Cn2ccn(C)c2=N)cc(C(=O)N[C@H](c2ccc(F)c(C)n2)C2CC2)c1 [Example 173, (S)-1N-(Cyclopropyl(5-fluoro-6-methylpyridin-2-yl)methyl)-4′-fluoro-5-((2-imino-3-methyl-2,3-dihydro-1H-imidazol-1-yl)methyl)-2′-methyl-[1,1′-biphenyl]-3-carboxamide] | 0.89
21 | CCn1cc(-c2cc(CN3CCOC3=N)cc(C(=O)NCC3CCCO3)c2)c(C(F)(F)F)n1 (centres unmarked) [Example 289, 3-(1-Ethyl-3-(trifluoromethyl)-1H-pyrazol-4-yl)-5-((2-iminooxazolidin-3-yl)methyl)-N-((tetrahydrofuran-2-yl)methyl)benzamide] | 31
22 | C[C@H](NC(=O)c1cc(Cn2ccn(C)c2=N)cc(-c2cccnc2C(F)(F)F)c1)c1ncc(F)cn1 [Example 130, (S)—N-(1-(5-Fluoropyrimidin-2-yl)ethyl)-3-((2-imino-3-methyl-2,3-dihydro-1H-imidazol-1-yl)methyl)-5-(2-(trifluoromethyl)pyridin-3-yl)benzamide] | > 33
23 | COc1cc(OC)cc(C(NC(=O)c2cc(Cn3ccn(C)c3=N)cc(-c3ncnc4c3CCCC4)c2)C2CC2)c1 (centres unmarked) [Example 96, N-(Cyclopropyl(3,5-dimethoxyphenyl)methyl)-3-((2-imino-3-methyl-2,3-dihydro-1H-imidazol-1-yl)methyl)-5-(5,6,7,8-tetrahydroquinazolin-4-yl)benzamide] | 27
24 | Cc1cc([C@@H](NC(=O)c2cc(CN3CCOC3=N)cc(-c3cn(CC(C)C)nc3C(F)(F)F)c2)C2CC2)ccc1F [Example 278, (S)—N-(Cyclopropyl(4-fluoro-3-methylphenyl)methyl)-3-((2-iminooxazolidin-3-yl)methyl)-5-(1-isobutyl-3-(trifluoromethyl)-1H-pyrazol-4-yl)benzamide] | 0.34
25 | Cc1cc(-c2cc(Cn3ccn(C)c3=N)cc(C(=O)NC(C3CC3)C3CC3)c2)ccn1 [Example 49, N-(Dicyclopropylmethyl)-3-((2-imino-3-methyl-2,3-dihydro-1H-imidazol-1-yl)methyl)-5-(2-methylpyridin-4-yl)benzamide] | 22
26 | Cc1cc(CNC(=O)c2cc(Cn3ccn(C)c3=N)cc(-c3ccc(F)cc3C(F)(F)F)n2)ccc1Cl [Example 99, N-(4-Chloro-3-methylbenzyl)-6-(4-fluoro-2-(trifluoromethyl)phenyl)-4-((2-imino-3-methyl-2,3-dihydro-1H-imidazol-1-yl)methyl)picolinamide] | 1.1
27 | Cc1ccnc(C(NC(=O)c2cc(Cn3ccn(C)c3=N)cc(-c3ccnn3C)c2)C2CC2)c1 (centres unmarked) [Example 12, N-(Cyclopropyl(4-methylpyridin-2-yl)methyl)-3-((2-imino-3-methyl-2,3-dihydro-1H-imidazol-1-yl)methyl)-5-(1-methyl-1H-pyrazol-5-yl)benzamide] | 1.2
28 | COc1ccnc(CNC(=O)c2cc(Cn3ccn(C)c3=N)cc(-c3cccnc3C)c2)c1 [Example 43, 3-((2-Imino-3-methyl-2,3-dihydro-1H-imidazol-1-yl)methyl)-N-((4-methoxypyridin-2-yl)methyl)-5-(2-methylpyridin-3-yl)benzamide] | 8420
29 | Cc1cc(F)ccc1-c1cc(Cn2ccn(C)c2=N)cc(C(=O)N[C@@H](c2ccc(F)c(C)n2)C2CC2)c1 [Example 167, (R)—N-(Cyclopropyl(5-fluoro-6-methylpyridin-2-yl)methyl)-4′-fluoro-5-((2-imino-3-methyl-2,3-dihydro-1H-imidazol-1-yl)methyl)-2′-methyl-[1,1′-biphenyl]-3-carboxamide] | 0.21
